# From PubChem BioAssay (NCI)
#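 Where inhibition never reached the appropriate level, the endpoint shown equals the highest concentration tested. Otherwise, values were interpolated linearly from a five-concentration, 48-hour dose response in 96-well plates. Abbreviation: GI50, concentration required for 50% inhibition of growth. The concentration for full growth arrest is given as TGI.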
# Legend:
# Experiment in all cases: growth of human tumour cells (NCI), 48 h
# DLD-1 colon = tested on: DLD-1 colon
# DMS 273 small cell lung = tested on: DMS 273 small cell lung
# HOP-18 NSCLC = tested on: HOP-18 NSCLC
# KM20L2 colon = tested on: KM20L2 colon
# M19-MEL melanoma = tested on: M19-MEL melanoma
# XF 498 CNS = tested on: XF 498 CNS
# RXF-631 renal = tested on: RXF-631 renal
# MDA-MB-435 = tested on: MDA-MB-435
# MDA-N = tested on: MDA-N
smiles,measurement,setting,value
CC(=O)c1sc(-c2nc(C)c(C(=O)/C=C\c3ccc(/C=C\C(=O)c4sc(-c5nc(C)c(C(C)=O)s5)nc4C)cc3)s2)nc1C,TGI,DLD-1 colon,> 100 µM
same,TGI,DMS 273 small cell lung,> 100 µM
same,TGI,HOP-18 NSCLC,> 100 µM
same,TGI,KM20L2 colon,> 100 µM
same,TGI,M19-MEL melanoma,> 100 µM
same,TGI,XF 498 CNS,> 100 µM
CC1(C)O/C(=C\c2ccccc2)C(=O)/C(=C/c2ccccc2)O1,TGI,DLD-1 colon,> 100 µM
same,TGI,DMS 273 small cell lung,> 100 µM
same,TGI,HOP-18 NSCLC,> 100 µM
same,TGI,M19-MEL melanoma,> 100 µM
same,TGI,RXF-631 renal,> 100 µM
same,TGI,XF 498 CNS,54.4 µM
O=[N+]([O-])c1ccc2c(c1)C(c1ccccc1Cl)=Nc1cn[nH]c1N2,GI50,MDA-MB-435,15.1 µM
same,TGI,MDA-MB-435,> 25 µM
CC(C)S(=O)(=O)c1ccccc1Nc1nc(Nc2cccc(NC(=O)CN)c2)ncc1Cl,GI50,MDA-MB-435,0.553 µM
same,TGI,MDA-MB-435,2.16 µM
CN[C@@H](C)[C@H](NC)c1ccccc1,TGI,DLD-1 colon,> 100 µM
same,TGI,DMS 273 small cell lung,> 100 µM
same,TGI,HOP-18 NSCLC,> 100 µM
same,TGI,M19-MEL melanoma,> 100 µM
same,TGI,RXF-631 renal,> 100 µM
CCOC(=N)CC(=O)Nc1cccc(C)c1C,TGI,DLD-1 colon,> 100 µM
same,TGI,DMS 273 small cell lung,> 100 µM
same,TGI,KM20L2 colon,> 100 µM
same,TGI,M19-MEL melanoma,> 100 µM
same,TGI,RXF-631 renal,> 100 µM
same,TGI,XF 498 CNS,> 100 µM
CCCCC1(CN2CCOCC2)S/C(=N/c2nc(CC(=O)OCC)cs2)NC1=O (stereo not drawn),GI50,MDA-MB-435,30.3 µM
same,TGI,MDA-MB-435,> 100 µM
Cc1cc(NS(=O)(=O)c2ccc(Nc3c4ccccc4nc4c(C(=O)NCCN(C)C)cccc34)cc2)no1,TGI,DLD-1 colon,> 100 µM
same,TGI,DMS 273 small cell lung,> 100 µM
same,TGI,KM20L2 colon,> 100 µM
same,TGI,M19-MEL melanoma,> 100 µM
same,TGI,XF 498 CNS,> 100 µM
Cc1cc2c(cc1Cl)SC(=Nc1ccc(Cl)cc1)N(S(=O)(=O)c1ccccc1)S2(=O)=O,GI50,MDA-MB-435,5.18 µM
same,TGI,MDA-MB-435,19.6 µM
CCc1ccccc1NC(=O)c1sc2nc3c(cc2c1N)C(=O)CCC3,GI50,MDA-MB-435,0.0598 µM
same,TGI,MDA-MB-435,0.336 µM
N#CC(=NCCO)C1=C(O)c2ccccc2C1=O,TGI,MDA-MB-435,> 100 µM
same,TGI,MDA-N,> 100 µM
C=CCSS/C=C/CS(=O)CC=C (stereo not drawn),TGI,MDA-MB-435,37.3 µM
same,TGI,MDA-N,35.9 µM
COc1ccc(OC)c2c(/C=C/c3ccc(N(C)C)cc3)ccnc12,TGI,MDA-MB-435,> 10 µM
same,TGI,MDA-N,> 10 µM
COc1ccc(C(=O)COc2cccc(/C=C3\Oc4ccc5ccccc5c4C3=O)c2)cc1,GI50,MDA-MB-435,5.24 µM
same,TGI,MDA-MB-435,20 µM
COc1cccc(-n2c3nc(=O)n(C)c(=O)c-3nc3ccccc32)c1,TGI,DLD-1 colon,96.1 µM
same,TGI,DMS 273 small cell lung,30.9 µM
same,TGI,HOP-18 NSCLC,> 100 µM
same,TGI,KM20L2 colon,62.6 µM
same,TGI,M19-MEL melanoma,6.1 µM
same,TGI,RXF-631 renal,76.7 µM
same,TGI,XF 498 CNS,42.7 µM
O=C(COc1ccc(/C=C2\CSc3ccccc3C2=O)cc1)Nc1nccs1,GI50,MDA-MB-435,3.31 µM
same,TGI,MDA-MB-435,15.1 µM
COc1ccc(C2c3cc(OC)c(OC)cc3C(Cc3ccc([N+](=O)[O-])cc3)C2c2ccc([N+](=O)[O-])cc2)cc1OC (stereo not drawn),TGI,DLD-1 colon,> 100 µM
same,TGI,DMS 273 small cell lung,> 100 µM
same,TGI,KM20L2 colon,> 100 µM
same,TGI,M19-MEL melanoma,> 100 µM
same,TGI,RXF-631 renal,> 100 µM
same,TGI,XF 498 CNS,> 100 µM
Nc1ccn(C2(CO)C=C(CO)C(O)C2O)c(=O)n1 (stereo not drawn),TGI,DLD-1 colon,> 25.8 µM
same,TGI,DMS 273 small cell lung,> 25.8 µM
same,TGI,HOP-18 NSCLC,> 25.8 µM
same,TGI,KM20L2 colon,> 25.8 µM
same,TGI,M19-MEL melanoma,> 25.8 µM
COC(=O)/C(C)=C/[N+](=O)[O-],TGI,DLD-1 colon,4.16 µM
same,TGI,DMS 273 small cell lung,34.6 µM
same,TGI,HOP-18 NSCLC,31.9 µM
same,TGI,KM20L2 colon,55.5 µM
same,TGI,M19-MEL melanoma,32.6 µM
same,TGI,XF 498 CNS,27.5 µM
O=S1OC2(c3ccccc3-c3ccccc32)c2ccccc21 (stereo not drawn),TGI,DLD-1 colon,> 100 µM
same,TGI,HOP-18 NSCLC,> 100 µM
same,TGI,KM20L2 colon,> 100 µM
same,TGI,M19-MEL melanoma,> 100 µM
same,TGI,XF 498 CNS,> 100 µM
Cc1cn2c(/C=C3\C(=O)N(C)c4ccc(O)cc43)c(C)nc2s1,GI50,MDA-MB-435,1.19 µM
same,TGI,MDA-MB-435,3.92 µM
Cc1c(C2=C(Br)C(=O)N(C)C2=O)c(=O)n(C)c(=O)n1C,TGI,MDA-MB-435,58.6 µM
same,TGI,MDA-N,77.8 µM
Cc1cc(C2CC(O)C(CO)O2)cc2c(=O)[nH]c(N)nc12 (stereo not drawn),GI50,MDA-MB-435,> 100 µM
same,TGI,MDA-MB-435,> 100 µM
COc1cc2c3c(n(CCCN(C)C)c(=O)c2cc1OC)-c1ccccc1C3=O,GI50,MDA-MB-435,19.1 µM
same,TGI,MDA-MB-435,> 100 µM
O=C(Nc1ccc(-n2cc(-c3ccncc3)c(-c3ccc(Cl)c(O)c3)n2)cc1)Nc1ccc(Cl)c(C(F)(F)F)c1,GI50,MDA-MB-435,1.32 µM
same,TGI,MDA-MB-435,2.91 µM
C1C[OH+]CCNCC[OH+]CC[OH+]CCN1.[Cl-].[Pt+4],GI50,DLD-1 colon,> 100 µM
same,TGI,DLD-1 colon,> 100 µM
same,GI50,DMS 273 small cell lung,> 100 µM
same,TGI,DMS 273 small cell lung,> 100 µM
same,GI50,HOP-18 NSCLC,> 100 µM
same,TGI,HOP-18 NSCLC,> 100 µM
same,GI50,KM20L2 colon,> 100 µM
same,TGI,KM20L2 colon,> 100 µM
O=C(Nc1ccc(CO)cc1)c1coc2ccccc2c1=O,GI50,MDA-MB-435,> 100 µM
same,TGI,MDA-MB-435,> 100 µM
C=C1C(=O)O[C@H]2/C=C(/C)C3=CC(=O)[C@@](C)(C[C@@H](OC(=O)/C(C)=C\C)C12)O3 (stereo partly drawn),TGI,MDA-MB-435,6.02 µM
same,TGI,MDA-N,6.24 µM
O=C(Nc1ccc(-c2ccccc2)cc1)C1CCN(S(=O)(=O)c2ccccc2Cl)CC1,GI50,MDA-MB-435,> 100 µM
same,TGI,MDA-MB-435,> 100 µM
CCn1c(CO)nn(-c2cc(O[C@@H](C)C(F)(F)F)c(C(=O)Nc3c(F)cccc3Cl)cc2F)c1=O,GI50,MDA-MB-435,< 0.0176 µM
same,TGI,MDA-MB-435,> 100 µM
C[C@]12CC[C@H](O)C[C@H]1CC[C@@H]1[C@@H]2CC[C@]2(C)[C@@H](C3=CC(=O)OC3)CC[C@]12O,TGI,MDA-MB-435,1.02 µM
same,TGI,MDA-N,0.806 µM
N=C(N)SCc1cccc(-c2nc3ccccc3c(=O)o2)c1,TGI,MDA-MB-435,> 100 µM
same,TGI,MDA-N,> 100 µM
O=C(/C=C/c1cc(CN2CCOCC2)c(O)c2ncccc12)c1cc(CN2CCOCC2)c(O)c2ncccc12,GI50,MDA-MB-435,< 0.0211 µM
same,TGI,MDA-MB-435,> 100 µM
CN(CCCNC(=O)Cc1ccc2ccc3cccc4ccc1c2c34)CCCNc1cc(-c2ccc3ccccc3c2)nc2ccccc12,GI50,MDA-MB-435,1.44 µM
same,TGI,MDA-MB-435,3.05 µM
[Au+].[Au+].[Au+].[c-]1nccn1Cc1ccccc1.[c-]1nccn1Cc1ccccc1.[c-]1nccn1Cc1ccccc1,GI50,DLD-1 colon,1.96 µM
same,TGI,DLD-1 colon,3.7 µM
same,GI50,DMS 273 small cell lung,1.66 µM
same,TGI,DMS 273 small cell lung,3.23 µM
same,GI50,HOP-18 NSCLC,2.87 µM
same,TGI,HOP-18 NSCLC,8.77 µM
same,GI50,KM20L2 colon,26.9 µM
same,TGI,KM20L2 colon,> 73 µM
same,GI50,M19-MEL melanoma,2.01 µM
same,TGI,M19-MEL melanoma,3.96 µM
same,GI50,MDA-MB-435,11.4 µM
same,TGI,MDA-MB-435,34.2 µM
same,GI50,MDA-N,11.2 µM
same,TGI,MDA-N,26.6 µM
same,GI50,XF 498 CNS,1.74 µM
same,TGI,XF 498 CNS,3.13 µM
CC(C)CNC(=O)O,TGI,MDA-MB-435,> 100 µM
same,TGI,MDA-N,> 100 µM
COc1ccc(Nc2c3ccccc3nc3occ(Cl)c23)cc1,GI50,MDA-MB-435,< 0.01 µM
same,TGI,MDA-MB-435,< 0.0317 µM
C=C1C(=O)O[C@H]2[C@H]1CC/C(COC(=O)c1ccc(Cl)nc1)=C\CC[C@@]1(C)O[C@@H]21,GI50,MDA-MB-435,2.14 µM
same,TGI,MDA-MB-435,6.81 µM
